Key:
FKBP52 = molecular target: T1, FKBP52 (Homo sapiens, UniProt Q02790); assay: Fluorescence polarization (FP) assay, binding to the FK506-binding domain of FKBP52; details: FK506-binding domain of FKBP52 (FKBP52FK1), competition with fluorescent ligand 2b
T1 sequence (Q02790 50-138 limits assumed): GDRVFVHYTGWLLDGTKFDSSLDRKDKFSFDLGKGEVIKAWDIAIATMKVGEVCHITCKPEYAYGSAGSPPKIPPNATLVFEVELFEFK
Outline: (§1)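 Competitive FP with fluorescent ligand 2b at 20 nM (2× concentration) and FK1 domain at 280 nM (FKBP51) or 400 nM (FKBP52) in 20 mM HEPES pH 8, 0.01% Triton-X100. Anisotropy read after 30 min at room temperature (ex 485, em 535 nm), in duplicate; IC50 by four-parameter fit, Ki via Wang competitive equation.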

FKBP51 = molecular target: T2, FKBP51 (Homo sapiens, UniProt Q13451); assay: Fluorescence polarization (FP) assay, binding to the FK506-binding domain of FKBP51; details: FK506-binding domain of FKBP51 (FKBP51FK1), competition with fluorescent ligand 2b
T2 sequence (Q13451 42-130 limits assumed): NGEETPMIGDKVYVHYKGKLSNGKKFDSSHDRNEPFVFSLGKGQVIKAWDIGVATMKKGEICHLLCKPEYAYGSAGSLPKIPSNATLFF
Outline: as §1

| Compound | Ki (FKBP52) | Ki (FKBP51) |
| --- | --- | --- |
| CCC1CN(Cc2ccccn2)C(=O)C2CCCC1N2S(=O)(=O)c1cc(Cl)cc(Cl)c1 (stereo in doubt) [Compound M1, (1S,5R,6R)-10-((3,5-dichlorophenyl)sulfonyl)-5-ethyl-3-(pyridin-2-ylmethyl)-3,10-diazabicyclo[4.3.1]decan-2-one] | ≤ 100 nM | ≤ 100 nM |
| C=CC1CN(Cc2ccccn2)C(=O)C2CCCC1N2S(=O)(=O)c1cc(Cl)cc(Cl)c1 (stereo in doubt) [Compound J4, (1S,5R,6R)-10-((3,5-dichlorophenyl)sulfonyl)-3-(pyridin-2-ylmethyl)-5-vinyl-3,10-diazabicyclo[4.3.1]decan-2-one] | 100 to 500 nM | 100 to 500 nM |
| COCCN1C[C@H](CCO)[C@H]2CCC[C@@H](C1=O)N2S(=O)(=O)c1cc(Cl)cc(Cl)c1 [Compound B8, (1S,5S,6R)-10-((3,5-dichlorophenyl)sulfonyl)-5-(2-hydroxyethyl)-3-(2-methoxyethyl)-3,10-diazabicyclo[4.3.1]decan-2-one] | 100 to 500 nM | 100 to 500 nM |
| C=CC1CN(Cc2ccccn2)C(=O)C2CCCC1N2S(=O)(=O)c1ccc(-c2ncccn2)cc1 (stereo in doubt) [Compound K28, (1S,5R,6R)-3-(pyridin-2-ylmethyl)-10-((4-(pyrimidin-2-yl)phenyl)sulfonyl)-5-vinyl-3,10-diazabicyclo[4.3.1]decan-2-one] | ≤ 100 nM | ≤ 100 nM |
| O=C1[C@@H]2CCC[C@H]([C@@H](CF)CN1Cc1ccccn1)N2S(=O)(=O)c1cc(Cl)cc(Cl)c1 [Compound M4, (1S,5S,6R)-10-((3,5-dichlorophenyl)sulfonyl)-5-(fluoromethyl)-3-(pyridin-2-ylmethyl)-3,10-diazabicyclo[4.3.1]decan-2-one] | ≤ 100 nM | ≤ 100 nM |
| C=CC1CN(CC#N)C(=O)C2CCCC1N2S(=O)(=O)c1cc(Cl)cc(Cl)c1 (stereo in doubt) [Compound J16, 2-((1S,5R,6R)-10-((3,5-dichlorophenyl)sulfonyl)-2-oxo-5-vinyl-3,10-diazabicyclo[4.3.1]decan-3-yl)acetonitrile] | 100 to 500 nM | 100 to 500 nM |
| C=C[C@@H]1CN(Cc2ccccn2)C(=O)[C@@H]2CCC[C@H]1N2S(=O)(=O)c1cccc(C(=O)OC)c1 [Compound K23, methyl 3-(((1S,5R,6R)-2-oxo-3-(pyridin-2-ylmethyl)-5-vinyl-3,10-diazabicyclo[4.3.1]decan-10-yl)sulfonyl)benzoate] | 500 to 1000 nM | 500 to 1000 nM |
| CCOCCN1C[C@H](C(O)CO)[C@H]2CCC[C@@H](C1=O)N2S(=O)(=O)c1cc(Cl)cc(Cl)c1 (stereo partly drawn) [Compound C3, (1S,5S,6R)-10-((3,5-dichlorophenyl)sulfonyl)-5-(1,2-dihydroxyethyl)-3-(2-ethoxyethyl)-3,10-diazabicyclo[4.3.1]decan-2-one] | 100 to 500 nM | 100 to 500 nM |
| COCC1CN(Cc2cnnn2-c2ccccc2)C(=O)C2CCCC1N2S(=O)(=O)c1cccc(F)c1 (stereo in doubt) [Compound N29, (1S,5R,6R)-10-((3-fluorophenyl)sulfonyl)-5-(methoxymethyl)-3-((1-phenyl-1H-1,2,3-triazol-5-yl)methyl)-3,10-diazabicyclo[4.3.1]decan-2-one] | 100 to 500 nM | 100 to 500 nM |
| C=C[C@@H]1CN(Cc2ccccn2)C(=O)[C@@H]2CCC[C@H]1N2S(=O)(=O)c1cc(Cl)c(NC(C)=O)c(Cl)c1 [Compound K22, N-(2,6-dichloro-4-(((1S,5R,6R)-2-oxo-3-(pyridin-2-ylmethyl)-5-vinyl-3,10-diazabicyclo[4.3.1]decan-10-yl)sulfonyl)phenyl)acetamide] | ≤ 100 nM | ≤ 100 nM |
| COC[C@H]1CN(Cc2cnn[nH]2)C(=O)[C@@H]2CCC[C@H]1N2S(=O)(=O)c1cccc(F)c1 [Compound N17, (1S,5S,6R)-3-((1H-1,2,3-triazol-5-yl)methyl)-10-((3-fluorophenyl)sulfonyl)-5-(methoxymethyl)-3,10-diazabicyclo[4.3.1]decan-2-one] | ≤ 100 nM | ≤ 100 nM |
| COC[C@H]1CN(Cc2cnnn2C(=O)c2ccccc2)C(=O)[C@@H]2CCC[C@H]1N2S(=O)(=O)c1cccc(F)c1 [Compound N31, (1S,5S,6R)-3-((1-benzoyl-1H-1,2,3-triazol-5-yl)methyl)-10-((3-fluorophenyl)sulfonyl)-5-(methoxymethyl)-3,10-diazabicyclo[4.3.1]decan-2-one] | 100 to 500 nM | 100 to 500 nM |
| C=C[C@@H]1CN(Cc2ccco2)C(=O)[C@@H]2CCC[C@H]1N2S(=O)(=O)c1cc(Cl)cc(Cl)c1 [Compound J17, (1S,5R,6R)-10-((3,5-dichlorophenyl)sulfonyl)-3-(furan-2-ylmethyl)-5-vinyl-3,10-diazabicyclo[4.3.1]decan-2-one] | 1000 to 5000 nM | 1000 to 5000 nM |
| COC[C@H]1CN(Cc2cnn[nH]2)C(=O)[C@@H]2CCC[C@H]1N2S(=O)(=O)c1cccnc1 [Compound N25, (1S,5S,6R)-3-((1H-1,2,3-triazol-5-yl)methyl)-5-(methoxymethyl)-10-(pyridin-3-ylsulfonyl)-3,10-diazabicyclo[4.3.1]decan-2-one] | ≤ 100 nM | ≤ 100 nM |
| CN(C)C[C@H]1CN(Cc2ccccn2)C(=O)[C@@H]2CCC[C@H]1N2S(=O)(=O)c1cc(Cl)cc(Cl)c1 [Compound M2, (1S,5S,6R)-10-((3,5-dichlorophenyl)sulfonyl)-5-((dimethylamino)methyl)-3-(pyridin-2-ylmethyl)-3,10-diazabicyclo[4.3.1]decan-2-one] | ≤ 100 nM | ≤ 100 nM |
| C=C[C@@H]1CN(CC(=O)OCC)C(=O)[C@@H]2CCC[C@H]1N2S(=O)(=O)c1cc(Cl)cc(Cl)c1 [Compound J9, ethyl 2-((1S,5R,6R)-10-((3,5-dichlorophenyl)sulfonyl)-2-oxo-5-vinyl-3,10-diazabicyclo[4.3.1]decan-3-yl)acetate] | 100 to 500 nM | 100 to 500 nM |
| C=CC1CN(Cc2ccccn2)C(=O)C2CCCC1N2S(=O)(=O)c1ccc2c(c1)CCO2 (stereo in doubt) [Compound K12, (1S,5R,6R)-10-((2,3-dihydrobenzofuran-5-yl)sulfonyl)-3-(pyridin-2-ylmethyl)-5-vinyl-3,10-diazabicyclo[4.3.1]decan-2-one] | 500 to 1000 nM | 500 to 1000 nM |
| C#CCN1C[C@H](COC)[C@H]2CCC[C@@H](C1=O)N2S(=O)(=O)c1cccc(C(=O)OC)c1 [Compound N10, methyl 3-(((1S,5S,6R)-5-(methoxymethyl)-2-oxo-3-(prop-2-yn-1-yl)-3,10-diazabicyclo[4.3.1]decan-10-yl)sulfonyl)benzoate] | 100 to 500 nM | 100 to 500 nM |
| C=CC1CN(Cc2ccccn2)C(=O)C2CCCC1N2S(=O)(=O)c1cc(Br)cc(Br)c1 (stereo in doubt) [Compound K16, (1S,5R,6R)-10-((3,5-dibromophenyl)sulfonyl)-3-(pyridin-2-ylmethyl)-5-vinyl-3,10-diazabicyclo[4.3.1]decan-2-one] | ≤ 100 nM | ≤ 100 nM |
| C=CC1CN(Cc2ccccn2)C(=O)C2CCCC1N2S(=O)(=O)c1cc(Br)cc(C(=O)OC)c1 (stereo in doubt) [Compound K24, methyl 3-bromo-5-(((1S,5R,6R)-2-oxo-3-(pyridin-2-ylmethyl)-5-vinyl-3,10-diazabicyclo[4.3.1]decan-10-yl)sulfonyl)benzoate] | ≤ 100 nM | ≤ 100 nM |
| C=C[C@@H]1CN(Cc2ccccn2)C(=O)[C@@H]2CCC[C@H]1N2S(=O)(=O)c1cc(Cl)cc(C(=O)OC)c1 [Compound K25, methyl 3-chloro-5-(((1S,5R,6R)-2-oxo-3-(pyridin-2-ylmethyl)-5-vinyl-3,10-diazabicyclo[4.3.1]decan-10-yl)sulfonyl)benzoate] | ≤ 100 nM | ≤ 100 nM |
| COc1ccc(OCCN2C[C@H](C[C@H](C)O)C3CCCC(C2=O)N3S(=O)(=O)c2cc(Cl)cc(Cl)c2)cc1OC (single isomer, unassigned) [Compound D4] | ≤ 100 nM | ≤ 100 nM |
| O=C1NC[C@H](O)[C@H]2CCC[C@@H]1N2S(=O)(=O)c1cc(Cl)cc(Cl)c1 [Compound G6, (1S,5S,6R)-10-((3,5-dichlorophenyl)sulfonyl)-5-hydroxy-3,10-diazabicyclo[4.3.1]decan-2-one] | 100 to 500 nM | 500 to 1000 nM |
| COCCN1CC(COC)C2CCCC(C1=O)N2S(=O)(=O)c1cc(Cl)cc(Cl)c1 (stereo in doubt) [Compound B14, (1S,5R,6R)-10-((3,5-dichlorophenyl)sulfonyl)-3-(2-methoxyethyl)-5-(methoxymethyl)-3,10-diazabicyclo[4.3.1]decan-2-one] | 100 to 500 nM | ≤ 100 nM |

Source: US9914732B2, “Diazabicyclo[4.3.1]decane derivatives for treatment of psychiatric disorders” (Max-Planck-Gesellschaft zur Forderung der Wissenschaften …, priority 2014, dated 2018)
